Several values for one entry are separate records, joined by “and”; a condition that tells them apart may be missing. Equal values may be shown once. Read-outs that look alike come from different tables or passages of the source.
Legend:
α2C adrenergic receptor = target: T1, α2C adrenergic receptor (Homo sapiens, UniProt P18825); experiment: PDSP radioligand binding, α2C; details: for inhibition at 10 µM: read-out: % inhibition at 10 µM, single concentration 10 µM; for Ki: full concentration-response curves, n = 3-6 unless noted
T1 sequence (P18825 1-462): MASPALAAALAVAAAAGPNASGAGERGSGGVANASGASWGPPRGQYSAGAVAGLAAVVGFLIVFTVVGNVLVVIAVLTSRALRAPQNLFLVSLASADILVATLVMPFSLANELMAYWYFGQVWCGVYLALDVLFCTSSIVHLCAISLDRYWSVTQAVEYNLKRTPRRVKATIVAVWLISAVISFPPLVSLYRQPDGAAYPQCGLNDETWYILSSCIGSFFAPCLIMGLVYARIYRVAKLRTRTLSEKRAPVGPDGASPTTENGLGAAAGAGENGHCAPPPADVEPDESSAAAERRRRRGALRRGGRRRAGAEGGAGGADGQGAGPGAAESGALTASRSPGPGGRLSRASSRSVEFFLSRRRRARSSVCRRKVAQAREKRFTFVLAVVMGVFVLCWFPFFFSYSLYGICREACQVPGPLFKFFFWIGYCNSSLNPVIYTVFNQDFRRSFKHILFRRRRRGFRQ

[1] = target: 5HT2B serotonergic receptor (Homo sapiens, UniProt P41595); experiment: PDSP radioligand binding, 5HT2B; details: for Ki: full concentration-response curves, n = 3-6 unless noted; for inhibition at 10 µM: read-out: % inhibition at 10 µM
[2] = target: 5HT5A serotonergic receptor (Homo sapiens, UniProt P47898); experiment: PDSP radioligand binding, 5HT5A; details: for inhibition at 10 µM: read-out: % inhibition at 10 µM, single concentration 10 µM
5HT3 ion channels = target: T2, 5HT3 ion channels (Homo sapiens, UniProt P46098); experiment: PDSP radioligand binding, 5HT3 ion channel; details: for inhibition at 10 µM: read-out: % inhibition at 10 µM, single concentration 10 µM
T2 sequence (P46098 24-478): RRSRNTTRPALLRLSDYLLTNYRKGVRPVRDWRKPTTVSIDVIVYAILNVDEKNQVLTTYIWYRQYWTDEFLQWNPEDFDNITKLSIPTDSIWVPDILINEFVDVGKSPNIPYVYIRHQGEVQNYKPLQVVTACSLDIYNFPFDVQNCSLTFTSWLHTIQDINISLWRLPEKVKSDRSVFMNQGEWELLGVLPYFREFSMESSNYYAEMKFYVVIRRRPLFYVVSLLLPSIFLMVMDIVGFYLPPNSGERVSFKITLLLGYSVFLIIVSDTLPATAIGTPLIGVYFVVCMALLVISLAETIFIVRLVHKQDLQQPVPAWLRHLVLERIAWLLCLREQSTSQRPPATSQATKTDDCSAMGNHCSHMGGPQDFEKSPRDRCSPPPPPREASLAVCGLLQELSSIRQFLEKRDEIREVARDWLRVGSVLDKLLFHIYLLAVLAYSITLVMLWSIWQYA

hERG potassium channel = hERG potassium channel (Homo sapiens, UniProt Q12809); experiment: PDSP hERG functional assay; type: cell-based; details: single point 10 µM
σ1 receptor = σ1 receptor (Cavia porcellus, UniProt Q60492); experiment: PDSP radioligand binding, σ1; details: read-out: % inhibition at 10 µM; single concentration 10 µM
[3] = target: peripheral benzodiazepine receptor (PBR) (Rattus norvegicus, UniProt P16257); experiment: PDSP radioligand binding, PBR; details: read-out: % inhibition at 10 µM; single concentration 10 µM
[4] = target: T3, M2 muscarinic acetylcholine receptor (Homo sapiens, UniProt P08172); experiment: PDSP radioligand binding, M2; details: read-out: % inhibition at 10 µM; single concentration 10 µM
T3 sequence (P08172 1-466): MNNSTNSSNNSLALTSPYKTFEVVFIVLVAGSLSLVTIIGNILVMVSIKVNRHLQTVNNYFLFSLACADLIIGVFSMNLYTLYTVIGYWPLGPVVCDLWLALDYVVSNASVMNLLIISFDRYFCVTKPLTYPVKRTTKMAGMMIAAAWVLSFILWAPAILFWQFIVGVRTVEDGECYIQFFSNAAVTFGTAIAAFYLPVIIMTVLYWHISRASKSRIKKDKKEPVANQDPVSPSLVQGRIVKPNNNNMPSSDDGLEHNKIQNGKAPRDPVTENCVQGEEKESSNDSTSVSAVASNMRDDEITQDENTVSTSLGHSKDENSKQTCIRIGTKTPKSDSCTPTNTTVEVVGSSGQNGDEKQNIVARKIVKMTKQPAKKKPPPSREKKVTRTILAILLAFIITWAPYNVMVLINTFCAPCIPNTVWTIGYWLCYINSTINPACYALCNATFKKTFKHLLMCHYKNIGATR

[5] = target: T4, M5 muscarinic acetylcholine receptor (Homo sapiens, UniProt P08912); experiment: PDSP radioligand binding, M5; details: read-out: % inhibition at 10 µM; single concentration 10 µM
T4 sequence (P08912 1-532): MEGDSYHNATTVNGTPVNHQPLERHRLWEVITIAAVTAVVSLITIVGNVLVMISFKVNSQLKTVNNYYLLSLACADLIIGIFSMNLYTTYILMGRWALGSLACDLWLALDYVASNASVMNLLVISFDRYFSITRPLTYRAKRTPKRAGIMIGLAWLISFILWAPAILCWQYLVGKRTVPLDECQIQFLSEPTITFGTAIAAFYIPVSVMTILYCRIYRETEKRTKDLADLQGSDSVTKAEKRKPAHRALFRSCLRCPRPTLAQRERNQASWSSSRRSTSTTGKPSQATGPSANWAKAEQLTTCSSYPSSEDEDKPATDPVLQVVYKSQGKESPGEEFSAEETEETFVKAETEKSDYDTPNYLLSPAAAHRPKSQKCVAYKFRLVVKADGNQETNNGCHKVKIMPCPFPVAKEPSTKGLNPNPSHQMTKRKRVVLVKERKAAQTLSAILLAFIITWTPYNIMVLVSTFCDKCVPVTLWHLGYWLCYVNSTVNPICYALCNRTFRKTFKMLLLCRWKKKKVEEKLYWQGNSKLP

[6] = target: H3 histaminergic receptor (Homo sapiens, UniProt Q9Y5N1); experiment: PDSP radioligand binding, H3; details: read-out: % inhibition at 10 µM; single concentration 10 µM
D2 dopaminergic receptor = D2 dopaminergic receptor (Homo sapiens, UniProt P14416); experiment: PDSP radioligand binding, D2; details: read-out: % inhibition at 10 µM; single concentration 10 µM
D3 dopaminergic receptor = D3 dopaminergic receptor (Homo sapiens, UniProt P35462); experiment: PDSP radioligand binding, D3; details: read-out: % inhibition at 10 µM; single concentration 10 µM
[7] = target: 5HT1B serotonergic receptor (Homo sapiens, UniProt P28222); experiment: PDSP radioligand binding, 5HT1B; details: read-out: % inhibition at 10 µM; single concentration 10 µM
[8] = target: 5HT6 serotonergic receptor (Homo sapiens, UniProt P50406); experiment: PDSP radioligand binding, 5HT6; details: read-out: % inhibition at 10 µM; single concentration 10 µM
κ opioid receptor = κ opioid receptor (Homo sapiens, UniProt P41145); experiment: PDSP radioligand binding, κ opioid; details: read-out: % inhibition at 10 µM
GABAA receptor = experiment: PDSP radioligand binding, GABAA; details: single concentration 10 µM

Chain of σ1 receptor (Q60492 whole entry): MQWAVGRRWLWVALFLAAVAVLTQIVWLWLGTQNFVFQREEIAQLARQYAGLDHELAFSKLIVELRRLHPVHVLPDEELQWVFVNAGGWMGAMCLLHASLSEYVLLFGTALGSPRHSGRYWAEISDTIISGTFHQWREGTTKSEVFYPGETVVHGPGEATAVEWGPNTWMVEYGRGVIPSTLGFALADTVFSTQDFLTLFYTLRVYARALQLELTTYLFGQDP
Chain of H3 histaminergic receptor (Q9Y5N1 whole entry): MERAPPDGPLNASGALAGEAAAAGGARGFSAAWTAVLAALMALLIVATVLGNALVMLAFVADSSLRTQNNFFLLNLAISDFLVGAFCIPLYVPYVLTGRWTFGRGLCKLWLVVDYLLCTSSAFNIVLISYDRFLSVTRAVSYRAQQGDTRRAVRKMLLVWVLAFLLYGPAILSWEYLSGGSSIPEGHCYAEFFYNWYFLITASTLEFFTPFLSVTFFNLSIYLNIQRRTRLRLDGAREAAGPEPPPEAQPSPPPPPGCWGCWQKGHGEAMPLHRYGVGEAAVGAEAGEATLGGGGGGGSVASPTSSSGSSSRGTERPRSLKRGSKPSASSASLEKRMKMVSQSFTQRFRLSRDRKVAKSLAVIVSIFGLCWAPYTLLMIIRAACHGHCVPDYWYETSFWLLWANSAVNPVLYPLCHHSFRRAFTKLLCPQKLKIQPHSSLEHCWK
Chain of 5HT1B serotonergic receptor (P28222 whole entry): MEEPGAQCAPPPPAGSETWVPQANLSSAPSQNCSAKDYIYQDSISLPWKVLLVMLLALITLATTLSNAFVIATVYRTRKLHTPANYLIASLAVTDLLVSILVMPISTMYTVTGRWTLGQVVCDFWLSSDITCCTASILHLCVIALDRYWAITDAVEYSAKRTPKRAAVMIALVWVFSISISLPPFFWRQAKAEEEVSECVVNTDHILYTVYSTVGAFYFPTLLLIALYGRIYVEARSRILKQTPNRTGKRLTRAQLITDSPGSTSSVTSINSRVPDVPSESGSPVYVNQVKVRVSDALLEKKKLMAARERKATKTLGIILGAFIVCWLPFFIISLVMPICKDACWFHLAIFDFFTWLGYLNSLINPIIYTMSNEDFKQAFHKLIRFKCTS
Chain of 5HT5A serotonergic receptor (P47898 whole entry): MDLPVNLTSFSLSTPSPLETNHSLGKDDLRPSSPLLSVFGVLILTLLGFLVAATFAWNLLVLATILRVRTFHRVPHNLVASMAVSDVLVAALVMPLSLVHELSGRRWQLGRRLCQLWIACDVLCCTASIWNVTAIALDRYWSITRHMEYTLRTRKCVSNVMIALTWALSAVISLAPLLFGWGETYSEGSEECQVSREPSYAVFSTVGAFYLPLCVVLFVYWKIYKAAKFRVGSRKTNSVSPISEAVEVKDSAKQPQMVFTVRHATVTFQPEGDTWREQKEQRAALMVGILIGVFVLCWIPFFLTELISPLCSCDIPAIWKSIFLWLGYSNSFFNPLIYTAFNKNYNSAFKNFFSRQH
Chain of 5HT2B serotonergic receptor (P41595 whole entry): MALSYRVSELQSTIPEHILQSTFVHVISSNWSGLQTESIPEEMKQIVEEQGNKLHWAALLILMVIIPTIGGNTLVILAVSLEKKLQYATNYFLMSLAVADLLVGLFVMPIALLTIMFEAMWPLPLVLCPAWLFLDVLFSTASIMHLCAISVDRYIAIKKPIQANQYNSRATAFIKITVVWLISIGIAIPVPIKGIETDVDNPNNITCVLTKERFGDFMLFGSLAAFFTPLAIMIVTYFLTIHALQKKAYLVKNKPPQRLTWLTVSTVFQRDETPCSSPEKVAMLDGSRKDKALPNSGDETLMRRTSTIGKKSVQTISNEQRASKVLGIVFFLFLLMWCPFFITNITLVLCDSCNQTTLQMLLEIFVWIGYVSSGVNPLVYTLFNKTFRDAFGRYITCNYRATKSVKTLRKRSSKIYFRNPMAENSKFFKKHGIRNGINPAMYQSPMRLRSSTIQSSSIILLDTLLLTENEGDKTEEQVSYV
Chain of D3 dopaminergic receptor (P35462 whole entry): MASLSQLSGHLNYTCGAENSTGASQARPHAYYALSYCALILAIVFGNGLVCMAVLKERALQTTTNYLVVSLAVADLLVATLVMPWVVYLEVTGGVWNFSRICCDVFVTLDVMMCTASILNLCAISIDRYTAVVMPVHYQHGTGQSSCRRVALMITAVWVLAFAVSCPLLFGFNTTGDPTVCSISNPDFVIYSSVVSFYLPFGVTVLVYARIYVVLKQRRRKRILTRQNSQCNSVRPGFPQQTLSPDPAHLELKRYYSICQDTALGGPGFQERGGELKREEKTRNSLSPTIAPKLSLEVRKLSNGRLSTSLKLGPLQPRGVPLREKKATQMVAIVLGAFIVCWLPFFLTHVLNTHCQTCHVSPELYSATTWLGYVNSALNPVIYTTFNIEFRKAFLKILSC
Chain of 5HT6 serotonergic receptor (P50406 whole entry): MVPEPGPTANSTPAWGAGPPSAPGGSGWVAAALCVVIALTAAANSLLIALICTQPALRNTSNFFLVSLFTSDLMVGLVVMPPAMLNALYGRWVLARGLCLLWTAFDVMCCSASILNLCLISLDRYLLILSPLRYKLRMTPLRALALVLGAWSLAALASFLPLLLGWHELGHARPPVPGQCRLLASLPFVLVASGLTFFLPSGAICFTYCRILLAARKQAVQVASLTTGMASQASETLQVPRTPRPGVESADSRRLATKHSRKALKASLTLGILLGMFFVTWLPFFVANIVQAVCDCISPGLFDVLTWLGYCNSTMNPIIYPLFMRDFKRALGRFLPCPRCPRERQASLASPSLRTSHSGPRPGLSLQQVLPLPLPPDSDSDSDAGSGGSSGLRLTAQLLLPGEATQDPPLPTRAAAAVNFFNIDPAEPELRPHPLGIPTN
Chain of D2 dopaminergic receptor (P14416 whole entry): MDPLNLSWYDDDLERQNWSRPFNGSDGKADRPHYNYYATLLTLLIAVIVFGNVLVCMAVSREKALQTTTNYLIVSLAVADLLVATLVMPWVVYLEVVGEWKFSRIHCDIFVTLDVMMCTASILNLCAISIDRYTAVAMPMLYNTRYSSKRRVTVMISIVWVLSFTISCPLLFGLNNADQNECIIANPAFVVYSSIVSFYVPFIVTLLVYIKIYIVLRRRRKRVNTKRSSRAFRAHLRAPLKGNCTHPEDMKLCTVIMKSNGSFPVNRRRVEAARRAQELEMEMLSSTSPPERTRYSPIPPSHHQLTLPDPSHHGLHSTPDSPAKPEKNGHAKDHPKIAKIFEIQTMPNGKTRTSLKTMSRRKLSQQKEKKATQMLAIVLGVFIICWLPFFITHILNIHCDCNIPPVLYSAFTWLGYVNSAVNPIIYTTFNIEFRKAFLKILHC
Chain of κ opioid receptor (P41145 whole entry): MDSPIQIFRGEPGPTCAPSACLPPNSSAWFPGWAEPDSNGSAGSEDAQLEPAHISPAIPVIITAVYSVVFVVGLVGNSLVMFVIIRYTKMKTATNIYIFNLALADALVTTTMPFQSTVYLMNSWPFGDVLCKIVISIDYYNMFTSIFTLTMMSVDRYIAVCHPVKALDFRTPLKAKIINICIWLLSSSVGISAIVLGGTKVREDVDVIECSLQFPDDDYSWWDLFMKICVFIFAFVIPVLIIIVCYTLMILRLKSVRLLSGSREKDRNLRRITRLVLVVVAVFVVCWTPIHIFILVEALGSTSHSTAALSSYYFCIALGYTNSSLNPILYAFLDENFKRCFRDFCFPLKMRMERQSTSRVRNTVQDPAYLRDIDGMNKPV
Chain of hERG potassium channel (Q12809 whole entry): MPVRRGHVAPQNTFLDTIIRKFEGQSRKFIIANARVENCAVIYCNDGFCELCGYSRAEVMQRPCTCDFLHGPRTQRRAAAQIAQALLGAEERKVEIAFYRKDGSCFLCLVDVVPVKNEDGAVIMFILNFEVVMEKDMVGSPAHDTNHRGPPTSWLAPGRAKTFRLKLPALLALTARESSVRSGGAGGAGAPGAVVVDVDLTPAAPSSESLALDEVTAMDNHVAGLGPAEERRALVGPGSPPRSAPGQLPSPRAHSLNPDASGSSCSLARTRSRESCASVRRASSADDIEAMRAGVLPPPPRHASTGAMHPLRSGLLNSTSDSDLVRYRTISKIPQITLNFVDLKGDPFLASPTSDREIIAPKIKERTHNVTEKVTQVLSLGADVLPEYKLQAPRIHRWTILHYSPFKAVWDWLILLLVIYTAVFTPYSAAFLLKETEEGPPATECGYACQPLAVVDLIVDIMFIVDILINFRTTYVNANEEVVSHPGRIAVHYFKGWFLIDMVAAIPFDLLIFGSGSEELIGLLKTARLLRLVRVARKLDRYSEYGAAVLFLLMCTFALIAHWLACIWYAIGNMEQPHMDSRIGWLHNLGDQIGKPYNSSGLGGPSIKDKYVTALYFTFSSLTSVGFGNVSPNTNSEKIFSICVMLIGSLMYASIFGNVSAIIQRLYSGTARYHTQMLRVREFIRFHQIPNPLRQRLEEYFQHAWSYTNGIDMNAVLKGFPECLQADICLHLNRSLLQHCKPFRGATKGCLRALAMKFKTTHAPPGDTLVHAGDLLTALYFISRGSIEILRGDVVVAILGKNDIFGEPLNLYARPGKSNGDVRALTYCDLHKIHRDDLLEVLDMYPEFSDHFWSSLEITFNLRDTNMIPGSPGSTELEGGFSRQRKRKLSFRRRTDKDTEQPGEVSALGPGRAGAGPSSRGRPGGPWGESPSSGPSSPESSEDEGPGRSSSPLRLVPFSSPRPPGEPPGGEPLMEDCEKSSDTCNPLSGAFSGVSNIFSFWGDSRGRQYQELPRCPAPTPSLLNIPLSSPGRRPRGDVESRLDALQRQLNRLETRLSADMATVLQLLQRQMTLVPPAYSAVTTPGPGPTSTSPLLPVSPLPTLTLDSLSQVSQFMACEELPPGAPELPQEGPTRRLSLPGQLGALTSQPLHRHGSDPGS

Row | Structure (SMILES) | inhibition at 10 µM (α2C adrenergic receptor) | Ki [1] | inhibition at 10 µM [2] | inhibition at 10 µM (5HT3 ion channels) | inhibition at 10 µM (σ1 receptor) | inhibition at 10 µM [3] | inhibition at 10 µM [4] | inhibition at 10 µM [5] | inhibition at 10 µM [6] | inhibition at 10 µM (D2 dopaminergic receptor) | inhibition at 10 µM (D3 dopaminergic receptor) | inhibition at 10 µM [7] | inhibition at 10 µM [8] | % inhibition at 10 µM (GABAA receptor) | Ki (α2C adrenergic receptor) | inhibition at 10 µM ([1]; single concentration 10 µM) | inhibition at 10 µM (κ opioid receptor; single concentration 10 µM) | further results
1 | O[C@@H]1[C@H](O)[C@@H]2C[C@@H]2[C@H]1n1cnc2c(NC(C3CC3)C3CC3)nc(Cl)nc21 [Compound 10] | 0% | 640 nM and 641 nM | 0% | 3% | 9% | 0% | 15% | 0% | 8% | 29% | 8% | 0% | 0% | 11% |  |  |  | inhibition at 10 µM [1]: 47%; % inhibition at 10 µM (hERG functional assay) (hERG potassium channel): 4.5 ± 2.4%; inhibition at 10 µM (κ opioid receptor): 0%
2 | Clc1cccc(CNc2nc(Cl)nc3[nH]cnc23)c1 [Compound 9] | 87% | 1780 ± 350 nM | 38% | 28% | 0% | 8% | 9% | 0% | 3% | 0% | 6% | 6% | 31% | 8% | 310 nM and 314 nM | 55% | 0% | Ki [2]: 4490 nM
3 | Fc1ccc(C#Cc2nc(NCc3cccc(Cl)c3)c3nc[nH]c3n2)cc1F [Compound 8] | 83% | 4000 ± 1920 nM | 11% | 0% | 0% | 13% | 6% | 2% | 0% | 0% | 23% | 32% | 0% | 0% | 1020 ± 690 nM | 39% | 15% | 
4 | O[C@@H]1[C@H](O)[C@@H]2C[C@@H]2[C@H]1n1cnc2c(NCc3cccc(Cl)c3)ncnc21 [Compound 7] | 51% | 2220 ± 650 nM | 16% | 83% | 29% | 13% | 15% | 15% | 0% | 6% | 4% | 2% | 39% | 0% | 5360 ± 1250 nM | 75% | 4% | Ki (5HT3 ion channels; full concentration-response curves, n = 3-6 unless noted): 3260 ± 800 nM
